From PubChem BioAssay (NCI)
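Assay format: 96-well plates, 48-hour exposure. TGI denotes the concentration required for complete inhibition of growth.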

Columns and labels:
Assay in all cases: NCI tumour cell line growth inhibition, 48 h
[1] = tested on: SK-MEL-2 melanoma
[2] = tested on: DU-145 prostate
[3] = tested on: SR leukemia
[4] = tested on: RPMI-8226 leukemia
[5] = tested on: MCF7 breast
[6] = tested on: M14 melanoma
[7] = tested on: HS 578T breast
[8] = tested on: NCI-H226 lung
[9] = tested on: HOP-92 NSCLC
[10] = tested on: SF-539 CNS
[11] = tested on: UACC-62 melanoma
[12] = tested on: HCT-116 colon
[13] = tested on: KM12 colon
[14] = tested on: ACHN renal
[15] = tested on: OVCAR-5 ovarian
[16] = tested on: UO-31 renal
[17] = tested on: SNB-19 CNS
[18] = tested on: NCI-H460 lung
[19] = tested on: SW-620 colon
[20] = tested on: HT29 colon
[21] = tested on: RXF 393 renal
[22] = tested on: MALME-3M melanoma
[23] = tested on: NCI-H23 lung
[24] = tested on: CCRF-CEM leukemia
[25] = tested on: CAKI-1 renal
[26] = tested on: HCC-2998 colon
[27] = tested on: COLO 205 colon
[28] = tested on: TK-10 renal
[29] = tested on: OVCAR-3 ovarian
[30] = tested on: NCI-H522 lung
[31] = tested on: OVCAR-4 ovarian
[32] = tested on: MDA-MB-231 breast
[33] = tested on: SF-295 CNS
[34] = tested on: SK-MEL-5 melanoma
[35] = tested on: T-47D breast
[36] = tested on: K-562 leukemia
[37] = tested on: UACC-257 melanoma
[38] = tested on: SK-MEL-28 melanoma
[39] = tested on: SNB-75 CNS
[40] = tested on: SF-268 CNS
[41] = tested on: IGROV1 ovarian
[42] = tested on: 786-0 renal
[43] = tested on: HOP-62 NSCLC
[44] = tested on: SK-OV-3 ovarian
[45] = tested on: MOLT-4 leukemia
[46] = tested on: NCI/ADR-RES ovarian
[47] = tested on: LOX IMVI melanoma
[48] = tested on: A498 renal
[49] = tested on: SN12C renal
[50] = tested on: MDA-N
[51] = tested on: HCT-15 colon
[52] = tested on: BT-549 breast
[53] = tested on: U251 CNS
[54] = tested on: HL-60(TB) leukemia
[55] = tested on: A549 NSCLC
[56] = tested on: PC-3 prostate

Measured: TGI

Cc1ccc2nc3n(c2c1)C(c1c(F)cccc1F)SC3 (stereo unspecified)
> 100 µM: all assays above
